Data from patent publication US20260138976A1 (Hoffmann-La Roche Inc., priority 2022, published 2026).

Experiments:
primary human T-cells = test: IL2 secretion measurements (24 h, CD3-stimulated T-cells, PBS counter screen); type: cell-based; conditions: for Emax IL2 (% activation): CD3 condition, normalised to DMSO (neutral) and 20 μM reference compound A1 = 100%; for EC50: Homo sapiens, T-cell, CD3-stimulated primary human T-cells, IL2 secretion, fitted sigmoidal curve, read-out: Tcell IL2 CD3 EC50
Summary of the method: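 IL-2 secretion was measured by ProQuantum or ELISA after 24 h culture of expanded human T-cells with compound, on CD3-antibody-coated plates or PBS counter-screen plates. Dosing used 5–6 points from a 20 or 10 μM final top at 3.333-fold steps in 0.2% DMSO. EC50/Emax were scaled between DMSO and 20 μM reference A1.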

[1] = biological target: T1, DGKα (hDGKalpha(1-735)-N-His) (Homo sapiens, UniProt P23743); test: In vitro DGK inhibition assay, DGKalpha ADP Glo (in house); type: biochemical; conditions: 4 nM DGKα, 25 μM ATP, 125 uM DLG in liposomes, 1 hour reaction
T1 construct: hDGKalpha(1-735)-N-His; His (N); made in house; host or cells: Sf21 insect cells (baculovirus)
T1 sequence (P23743 whole entry): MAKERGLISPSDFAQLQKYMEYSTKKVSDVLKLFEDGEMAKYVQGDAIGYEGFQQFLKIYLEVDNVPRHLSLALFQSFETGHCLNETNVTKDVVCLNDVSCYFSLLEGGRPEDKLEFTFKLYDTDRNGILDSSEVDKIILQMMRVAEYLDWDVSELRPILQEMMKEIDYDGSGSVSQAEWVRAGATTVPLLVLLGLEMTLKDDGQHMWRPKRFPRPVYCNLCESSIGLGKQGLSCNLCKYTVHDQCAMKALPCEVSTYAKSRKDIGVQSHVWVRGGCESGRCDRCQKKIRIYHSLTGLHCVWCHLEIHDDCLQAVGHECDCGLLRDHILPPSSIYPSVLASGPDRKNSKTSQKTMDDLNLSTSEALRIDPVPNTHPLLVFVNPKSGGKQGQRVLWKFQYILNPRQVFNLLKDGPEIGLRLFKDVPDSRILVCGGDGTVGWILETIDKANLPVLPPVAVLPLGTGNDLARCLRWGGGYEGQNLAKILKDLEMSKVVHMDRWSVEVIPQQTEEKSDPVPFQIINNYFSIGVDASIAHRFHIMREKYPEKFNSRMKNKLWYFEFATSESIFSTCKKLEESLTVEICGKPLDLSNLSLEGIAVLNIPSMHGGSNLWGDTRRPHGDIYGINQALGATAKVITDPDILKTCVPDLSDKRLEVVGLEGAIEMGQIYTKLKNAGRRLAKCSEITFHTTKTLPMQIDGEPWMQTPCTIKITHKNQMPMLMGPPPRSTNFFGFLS
Summary of the method: (§1)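 ADP-Glo luminescence measured ADP formed over 1 h by Sf21-expressed full-length human enzymes: DGKα at 4 nM with 25 µM ATP, DGKζ at 2 nM with 50 µM ATP, both on 125 µM DLG in PS/PC liposomes. Dose–response used 11 threefold dilutions at 2% final DMSO.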

[2] = biological target: T2, DGKζ (hDGKzeta(1-928)-N-His) (Homo sapiens, UniProt Q13574); test: In vitro DGK inhibition assay, DGKzeta ADP Glo (in house); type: biochemical; conditions: 2 nM DGKζ, 50 μM ATP, 125 uM DLG in liposomes, 1 hour reaction
T2 construct: hDGKzeta(1-928)-N-His; His (N); made in house; host or cells: Sf21 insect cells (baculovirus)
T2 sequence (Q13574 whole entry): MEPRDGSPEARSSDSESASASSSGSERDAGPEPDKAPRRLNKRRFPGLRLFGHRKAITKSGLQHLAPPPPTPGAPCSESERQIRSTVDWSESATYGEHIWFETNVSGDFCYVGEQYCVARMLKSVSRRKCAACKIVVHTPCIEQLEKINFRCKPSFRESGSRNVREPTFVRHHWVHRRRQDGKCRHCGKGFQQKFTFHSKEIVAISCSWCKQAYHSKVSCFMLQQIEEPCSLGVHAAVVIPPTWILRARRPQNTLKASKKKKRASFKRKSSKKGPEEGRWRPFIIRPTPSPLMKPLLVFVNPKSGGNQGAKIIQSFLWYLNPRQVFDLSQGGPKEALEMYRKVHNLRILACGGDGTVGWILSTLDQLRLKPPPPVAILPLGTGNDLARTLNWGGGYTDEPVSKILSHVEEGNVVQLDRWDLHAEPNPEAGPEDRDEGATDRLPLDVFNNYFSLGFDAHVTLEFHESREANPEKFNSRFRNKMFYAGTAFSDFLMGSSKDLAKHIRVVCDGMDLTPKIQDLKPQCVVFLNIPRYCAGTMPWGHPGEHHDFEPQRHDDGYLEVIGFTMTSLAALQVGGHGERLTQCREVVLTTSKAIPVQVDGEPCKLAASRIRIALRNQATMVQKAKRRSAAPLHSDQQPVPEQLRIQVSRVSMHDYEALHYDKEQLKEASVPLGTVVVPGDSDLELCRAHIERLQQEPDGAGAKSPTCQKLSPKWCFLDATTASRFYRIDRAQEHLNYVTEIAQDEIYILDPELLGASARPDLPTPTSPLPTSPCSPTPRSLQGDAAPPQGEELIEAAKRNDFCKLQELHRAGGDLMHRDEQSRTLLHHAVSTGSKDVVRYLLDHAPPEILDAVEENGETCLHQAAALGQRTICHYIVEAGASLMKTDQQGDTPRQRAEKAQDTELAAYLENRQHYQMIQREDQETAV
Summary of the method: as §1

N[C@H]1CS(=O)(=O)c2ccc(-c3nnc(C4(C5CC5)CCCO4)o3)cc2N(Cc2ccc(-c3nnc(C(F)(F)F)o3)cc2)C1=O (stereo partly drawn) [Example 97, (3R)-3-amino-7-[5-(2-cyclopropyltetra-hydrofuran-2-yl)-1,3,4-oxadiazol-2-yl]-1,1-dioxo-5-[[4-[5-(trifluoromethyl)-1,3,4-oxadiazol-2-yl]phenyl]methyl]-2,3-dihydro-1λ6,5-benzothiazepin-4-one]
Emax IL2 (% activation) (primary human T-cells): 115 % activation
EC50 (primary human T-cells): 6350 nM
IC50 [1]: 4.68 µM
IC50 [2]: 2080 nM

CC1(c2nnc(-c3ccc4c(c3)N(Cc3ccc(-c5ccc(C(F)(F)F)cc5)cc3)C(=O)[C@@H](N)CS4(=O)=O)o2)CCO1 (stereo partly drawn) [Example 48, (3R)-3-amino-7-[5-(2-methyloxetan-2-yl)-1,3,4-oxadiazol-2-yl]-1,1-dioxo-5-[[4-[4-(trifluoromethyl)phenyl]phenyl]methyl]-2,3-dihydro-1lambda6,5-benzothiazepin-4-one]
Emax IL2 (% activation) (primary human T-cells): 114 % activation
EC50 (primary human T-cells): 984 nM
IC50 [1]: > 62.5 µM
IC50 [2]: 1590 nM

N#CC1CN(c2nnc(-c3ccc4c(c3)N(Cc3ccc(-c5noc(C(F)(F)F)n5)cc3)C(=O)[C@@H](N)CS4(=O)=O)o2)CCO1 (stereo partly drawn) [Example 163, 4-[5-[(3R)-3-amino-1,1,4-trioxo-5-[[4-[5-(trifluoromethyl)-1,2,4-oxadiazol-3-yl]phenyl]methyl]-2,3-dihydro-1λ^6,5-benzothiazepin-7-yl]-1,3,4-oxadiazol-2-yl]morpholine-2-carbonitrile]
Emax IL2 (% activation) (primary human T-cells): 152 % activation
EC50 (primary human T-cells): 2390 nM
IC50 [1]: > 62.5 µM
IC50 [2]: 10600 nM

CC(C)(C)c1nnc(-c2ccc3c(c2)N(Cc2ccc(-c4noc(C(F)(F)F)n4)cc2)C(=O)[C@@H](N)CS3(=O)=O)o1 [Example 23, (3R)-3-amino-7-(5-tert-butyl-1,3,4-oxadiazol-2-yl)-1,1-dioxo-5-[[4-[5-(trifluoromethyl)-1,2,4-oxadiazol-3-yl]phenyl]methyl]-2,3-dihydro-1λ^6,5-benzothiazepin-4-one]
Emax IL2 (% activation) (primary human T-cells): 120 % activation
EC50 (primary human T-cells): 769 nM
IC50 [1]: 1.53 µM
IC50 [2]: 523 nM

CC(C)(C)c1nnc(-c2ccc3c(c2)N(Cc2ccc(-n4cc(C(F)(F)F)cn4)cc2)C(=O)[C@@H](N)CS3(=O)=O)o1 [Example 25, (3R)-3-amino-7-(5-tert-butyl-1,3,4-oxadiazol-2-yl)-1,1-dioxo-5-[[4-[4-(trifluoromethyl)pyrazol-1-yl]phenyl]methyl]-2,3-dihydro-1λ^6,5-benzothiazepin-4-one]
Emax IL2 (% activation) (primary human T-cells): 137 % activation
EC50 (primary human T-cells): 609 nM
IC50 [1]: 3.54 µM
IC50 [2]: 1270 nM

CC(C)(C#N)c1nnc(-c2ccc3c(c2)N(Cc2ccc(-c4ccc(OC(F)(F)F)cn4)cc2)C(=O)[C@@H](N)CS3(=O)=O)o1 [Example 124]
Emax IL2 (% activation) (primary human T-cells): 154 % activation
EC50 (primary human T-cells): 278 nM
IC50 [1]: 2.4 µM
IC50 [2]: 801 nM

N[C@H]1CS(=O)(=O)c2ccc(-c3noc(-c4cccnc4C(F)(F)F)n3)cc2N(Cc2ccc(-c3noc(C4CC4)n3)cc2)C1=O [Example 87, (3R)-3-amino-5-[[4-(5-cyclopropyl-1,2,4-oxadiazol-3-yl)phenyl]methyl]-1,1-dioxo-7-[5-[2-(trifluoromethyl)-3-pyridyl]-1,2,4-oxadiazol-3-yl]-2,3-dihydro-1λ^6,5-benzothiazepin-4-one]
Emax IL2 (% activation) (primary human T-cells): 16 % activation
EC50 (primary human T-cells): > 10000 nM
IC50 [1]: > 62.5 µM
IC50 [2]: 2310 nM

CC(C)(C)c1nnc(-c2ccc3c(c2)N(Cc2ccc(-n4cnc(C(F)(F)F)c4)cc2)C(=O)[C@@H](N)CS3(=O)=O)o1 [Example 28, (3R)-3-amino-7-(5-tert-butyl-1,3,4-oxadiazol-2-yl)-1,1-dioxo-5-[[4-[4-(trifluoromethyl)imidazol-1-yl]phenyl]methyl]-2,3-dihydro-1λ^6,5-benzothiazepin-4-one]
Emax IL2 (% activation) (primary human T-cells): 81 % activation
EC50 (primary human T-cells): 5010 nM
IC50 [1]: 37.3 µM
IC50 [2]: 4260 nM

CC(C)(C)c1nnc(-c2ccc3c(c2)N(Cc2ccc(-n4ccc(C(F)(F)F)n4)cc2)C(=O)[C@@H](N)CS3(=O)=O)o1 [Example 27]
Emax IL2 (% activation) (primary human T-cells): 160 % activation
EC50 (primary human T-cells): 476 nM
IC50 [1]: 2.95 µM
IC50 [2]: 758 nM

N[C@H]1CS(=O)(=O)c2ccc(-c3noc(-c4cccnc4Cl)n3)cc2N(Cc2ccc(-c3noc(C4CC4)n3)cc2)C1=O [Example 85, (3R)-3-amino-7-[5-(2-chloro-3-pyridyl)-1,2,4-oxadiazol-3-yl]-5-[[4-(5-cyclopropyl-1,2,4-oxadiazol-3-yl)phenyl]methyl]-1,1-dioxo-2,3-dihydro-1λ^6,5-benzothiazepin-4-one]
Emax IL2 (% activation) (primary human T-cells): 4 % activation
EC50 (primary human T-cells): > 10000 nM
IC50 [1]: > 62.5 µM
IC50 [2]: 2100 nM

N[C@H]1CS(=O)(=O)c2ccc(-c3nnc(N4CCOC(C(F)(F)F)C4)o3)cc2N(Cc2ccc(-c3ccc(C(F)(F)F)cn3)cc2)C1=O (stereo partly drawn) [Example 75, (3R)-3-amino-1,1-dioxo-7-[5-[2-(trifluoromethyl)morpholin-4-yl]-1,3,4-oxadiazol-2-yl]-5-[[4-[5-(trifluoromethyl)-2-pyridyl]phenyl]methyl]-2,3-dihydro-1λ^6,5-benzothiazepin-4-one]
Emax IL2 (% activation) (primary human T-cells): 140 % activation
EC50 (primary human T-cells): 2550 nM
IC50 [1]: 45.7 µM
IC50 [2]: 2680 nM

CC1(Nc2nnc(-c3ccc4c(c3)N(Cc3ccc(-c5noc(C(F)(F)F)n5)cc3)C(=O)[C@@H](N)CS4(=O)=O)o2)CC(F)(F)C1 [Example 72, (3R)-3-amino-7-[5-[(3,3-difluoro-1-methyl-cyclobutyl)amino]-1,3,4-oxadiazol-2-yl]-1,1-dioxo-5-[[4-[5-(trifluoromethyl)-1,2,4-oxadiazol-3-yl]phenyl]methyl]-2,3-dihydro-1λ^6,5-benzothiazepin-4-one]
Emax IL2 (% activation) (primary human T-cells): 238 % activation
EC50 (primary human T-cells): 3280 nM
IC50 [1]: > 62.5 µM
IC50 [2]: 20900 nM

CC(C)(C)c1nnc(-c2ccc3c(c2)N(Cc2ccc(-c4nc(C(F)(F)F)co4)cc2)C(=O)[C@@H](N)CS3(=O)=O)o1 [Example 89, (3R)-3-amino-7-(5-tert-butyl-1,3,4-oxadiazol-2-yl)-1,1-dioxo-5-[[4-[4-(trifluoromethyl)oxazol-2-yl]phenyl]methyl]-2,3-dihydro-1λ^6,5-benzothiazepin-4-one]
Emax IL2 (% activation) (primary human T-cells): 182 % activation
EC50 (primary human T-cells): 377 nM
IC50 [1]: 8.27 µM
IC50 [2]: 613 nM

COCC1CN(c2nnc(-c3ccc4c(c3)N(Cc3ccc(-c5noc(C(F)(F)F)n5)cc3)C(=O)[C@@H](N)CS4(=O)=O)o2)CCO1 (stereo partly drawn) [Example 164, (3R)-3-amino-7-[5-[2-(methoxymethyl)morpholin-4-yl]-1,3,4-oxadiazol-2-yl]-1,1-dioxo-5-[[4-[5-(trifluoromethyl)-1,2,4-oxadiazol-3-yl]phenyl]methyl]-2,3-dihydro-1λ^6,5-benzothiazepin-4-one]
Emax IL2 (% activation) (primary human T-cells): 156 % activation
EC50 (primary human T-cells): 3300 nM
IC50 [1]: > 62.5 µM
IC50 [2]: 2030 nM

CC(C)(C)c1nnc(-c2ccc3c(c2)N(Cc2ccc(-n4cnc(C(F)(F)F)n4)cc2)C(=O)[C@@H](N)CS3(=O)=O)o1 [Example 91, (3R)-3-amino-7-(5-tert-butyl-1,3,4-oxadiazol-2-yl)-1,1-dioxo-5-[[4-[3-(trifluoromethyl)-1,2,4-triazol-1-yl]phenyl]methyl]-2,3-dihydro-126,5-benzothiazepin-4-one]
Emax IL2 (% activation) (primary human T-cells): 113 % activation
EC50 (primary human T-cells): 3600 nM
IC50 [1]: 4.24 µM
IC50 [2]: 3010 nM

CCC(O)(c1nnc(-c2ccc3c(c2)N(Cc2ccc(-c4noc(C5CC5)n4)cc2)C(=O)[C@@H](N)CS3(=O)=O)o1)C(F)(F)F (stereo partly shown) [Example 169]
Emax IL2 (% activation) (primary human T-cells): 128 % activation
EC50 (primary human T-cells): 3170 nM
IC50 [1]: > 19.8 µM
IC50 [2]: 1770 nM

COC(F)(c1nnc(-c2ccc3c(c2)N(Cc2ccc(-c4nnc(C5CC5)o4)cc2)C(=O)[C@@H](N)CS3(=O)=O)o1)C(F)(F)F (stereo partly shown) [Example 65]
Emax IL2 (% activation) (primary human T-cells): 92 % activation
EC50 (primary human T-cells): 1420 nM
IC50 [1]: 2.49 µM
IC50 [2]: 6440 nM

Cc1noc(-c2ccc(CN3C(=O)[C@@H](N)CS(=O)(=O)c4cc(F)c(-c5nnc(C(C)(C)C)o5)cc43)cc2)n1 [Example 2]
Emax IL2 (% activation) (primary human T-cells): 168 % activation
EC50 (primary human T-cells): 891 nM
IC50 [1]: 0.613 µM
IC50 [2]: 128 nM

CC(C)(C#N)c1nnc(-c2ccc3c(c2)N(Cc2ccc(-n4ccc(C(F)(F)F)n4)cc2)C(=O)[C@@H](N)CS3(=O)=O)o1 [Example 121, 2-[5-[(3R)-3-amino-1,1,4-trioxo-5-[[4-[3-(trifluoromethyl)pyrazol-1-yl]phenyl]methyl]-2,3-dihydro-1λ^6,5-benzothiazepin-7-yl]-1,3,4-oxadiazol-2-yl]-2-methyl-propanenitrile]
Emax IL2 (% activation) (primary human T-cells): 207 % activation
EC50 (primary human T-cells): 732 nM
IC50 [1]: > 6.25 µM
IC50 [2]: 767 nM
